From patent EP2611798B1, “PYRIDAZINONES, METHOD OF MAKING, AND METHOD OF USE THEREOF” (Gilead Connecticut, Inc., priority 2010, dated 2012)

Legend:
[1] = molecular target: T1, full length human wildtype Btk (Homo sapiens, UniProt Q06187); experiment: Biochemical Btk Kinase Assay (Example 901); settings: time-resolved fluorescence, final ATP concentration 40 µM; alternatively Lanthascreen assay, ATP 25 uM
T1 construct: V5 (C); 6xHis (C); made in house; host or cells: Sf9 insect cells (baculovirus, pFastBac)
Description: Formula I compounds were tested by a standard biochemical Btk Kinase Assay (Example 901). A generalized procedure for a standard biochemical Btk Kinase Assay that can be used to test Formula I compounds is as follows. […] Btk enzyme is prepared as follows: full length human wildtype Btk (accession number NM-000061) with a C-terminal V5 and 6x His tag was subcloned into pFastBac vector for making baculovirus carrying this epitope-tagged Btk. Generation of baculovirus is done based on Invitrogen's instructions detailed in its published protocol "Bac-to-Bac Baculovirus Expression Systems" (Cat. Nos. 10359-016 and 10608-016). Passage 3 virus is used to infect Sf9 cells to overexpress the recombinant Btk protein. The Btk protein is then purified to homogeneity using Ni-NTA column. The purity of the final protein preparation is greater than 95% based on the sensitive Sypro-Ruby staining. A solution of 200 µM ATP is prepared in water and adjusted to pH7.4 with 1N NaOH. A quantity of 1.25 µL of compounds in 5%DMSO is transferred to a 96-well ½ area Costar polystyrene plate. Compounds are tested singly and with an 11-point dose-responsive curve (starting concentration is 10 µM; 1:2 dilution). A quantity of 18.75 µL of master mix minus enzyme (as a negative control) and master mix plus enzyme is transferred to appropriate wells in 96-well ½ area costar polystyrene plate. 5 µL of 200 µM ATP is added to that mixture in the 96-well ½ area Costar polystyrene plate for final ATP concentration of 40 µM. The reaction is allowed to incubate for 1 hour at room temperature. The reaction is stopped with Perkin Elmer 1X detection buffer containing 30 mM EDTA, 20 nM SA-APC, and 1 nM PT66 Ab. The plate is read using time-resolved fluorescence with a Perkin Elmer Envision using excitation filter 330 nm, emission filter 665 nm, and 2nd emission filter 615 nm. IC50 values are subsequently calculated. Alternatively, the Lanthascreen assay can be used to evaluate Btk activity through quantification of its phosphorylated peptide product. The FRET (Fluorescence Resonance Energy Transfer) that occurs between the fluorescein on the peptide product and the terbium on the detection antibody decreases with the addition of inhibitors of Btk that reduce the phosphorylation of the peptide. […] After incubation for 60 minutes at room temperature, the reaction is stopped by the addition of a final concentration of 2 nM Tb-PY20 detection antibody in 60 mM EDTA for 30 minutes at room temperature. Detection is determined on a Perkin Elmer Envision with 340 nm excitation and emission at 495 nm and 520 nm. Exemplary Btk inhibition IC50 values are in Tables and 2.

[2] = tested on: production of CD69 by B lymphocytes in human whole blood; experiment: CD69 Whole Blood Assay (Example 907); type: cell-based; settings: Lymphocyte; human whole blood activated with goat F(ab')2 anti-human IgM, 20 hours; percent CD69 positive cells that are also CD20 positive
Excerpt: A CD69 Whole Blood Assay can be conducted on Formula I compounds to determine the ability of compounds to inhibit the production of CD69 by B lymphocytes in human whole blood activated by crosslinking surface IgM with goat F(ab')2 anti-human IgM (Example 907).
Human blood is obtained from healthy volunteers, with the following restrictions: 1 week drug-free, non-smokers. Blood (approximately 20 mls to test 8 compounds) is collected by venipuncture into Vacutainer® (Becton, Dickinson and Co.) tubes with sodium heparin.
Solutions of Formula I compounds at 10 mM in DMSO are diluted 1:10 in 100% DMSO, then are diluted by three-fold serial dilutions in 100% DMSO for a ten point dose-response curve. The compounds are further diluted 1:10 in PBS and then an aliquot of 5.5 µl of each compound is added in duplicate to a 2 ml 96-well plate; 5.5 µl of 10% DMSO in PBS is added as control and no-stimulus wells. Human whole blood - HWB (100 µl) is added to each well. After mixing the plates are incubated at 37 °C, 5% CO2, 100% humidity for 30 minutes. Goat F(ab')2 anti-human IgM (10 µl of a 500 µg/ml solution, 50 µg/ml final) is added to each well (except the no-stimulus wells) with mixing and the plates are incubated for an additional 20 hours. At the end of the 20 hour incubation, samples are incubated with fluorescent labeled antibodies for 30 minutes, at 37 °C, 5% CO2, 100% humidity. Include induced control, unstained and single stains for compensation adjustments and initial voltage settings. Samples are then lysed with PharM Lyse™ (BD Biosciences Pharmingen) according to the manufacturer's instructions. Samples are then transferred to a 96 well plate suitable to be run on the BD Biosciences HTS 96 well system on the LSRII machine. Data acquired and Mean Fluorescence Intensity values were obtained using BD Biosciences DIVA Software. Results are initially analyzed by FACS analysis software (Flow Jo). […] The IC50 values are calculated by Prism version 5, using a nonlinear regression curve fit.

CD86 surface expression = experiment: CD86 Inhibition Assay (Example 905), inhibition of B cell activity in total mouse splenocytes; type: cell-based, Balb/c mice; settings: Splenocyte; total mouse splenocytes stimulated with 15 µg/ml IgM for 24 hr; gated on CD19+/7AAD- population
Description: A CD86 Inhibition assay can be conducted on Formula I compounds for the inhibition of B cell activity using total mouse splenocytes purified from spleens of 8-16 week old Balb/c mice (Example 905).
A generalized procedure for a standard assay for the inhibition of B cell activity that can be used to test Formula I compounds is as follows. Total mouse splenocytes are purified from spleens of 8-16 week old Balb/c mice by red blood cell lysis (BD Pharmingen #555899). Testing compounds are diluted to 0.5% DMSO and incubated with 1.25 x 10^6 splenocytes in a final volume of 200 µl in flat clear bottom plates (Falcon 353072) for 60 min at 37°C. Cells are then stimulated with the addition of 15 µg/ml IgM (Jackson ImmunoResearch 115-006-020), and incubated for 24 hr at 37°C, 5% CO2. Following the 24 hr incubation, cells are transferred to conical bottom clear 96-well plates and pelleted by centrifugation at 1200 x g x 5 min. Cells are preblocked by CD16/CD32 (BD Pharmingen #553142), followed by triple staining with CD19-FITC (BD Pharmingen #553785), CD86-PE (BD Pharmingen #553692), and 7AAD (BD Pharmingen #51-68981E). Cells are sorted on a BD FACSCalibur and gated on the CD19^+/7AAD^- population. The levels of CD86 surface expression on the gated population is measured versus test compound concentration. Exemplary results are in Table 3.

T1 sequence (Q06187 whole entry): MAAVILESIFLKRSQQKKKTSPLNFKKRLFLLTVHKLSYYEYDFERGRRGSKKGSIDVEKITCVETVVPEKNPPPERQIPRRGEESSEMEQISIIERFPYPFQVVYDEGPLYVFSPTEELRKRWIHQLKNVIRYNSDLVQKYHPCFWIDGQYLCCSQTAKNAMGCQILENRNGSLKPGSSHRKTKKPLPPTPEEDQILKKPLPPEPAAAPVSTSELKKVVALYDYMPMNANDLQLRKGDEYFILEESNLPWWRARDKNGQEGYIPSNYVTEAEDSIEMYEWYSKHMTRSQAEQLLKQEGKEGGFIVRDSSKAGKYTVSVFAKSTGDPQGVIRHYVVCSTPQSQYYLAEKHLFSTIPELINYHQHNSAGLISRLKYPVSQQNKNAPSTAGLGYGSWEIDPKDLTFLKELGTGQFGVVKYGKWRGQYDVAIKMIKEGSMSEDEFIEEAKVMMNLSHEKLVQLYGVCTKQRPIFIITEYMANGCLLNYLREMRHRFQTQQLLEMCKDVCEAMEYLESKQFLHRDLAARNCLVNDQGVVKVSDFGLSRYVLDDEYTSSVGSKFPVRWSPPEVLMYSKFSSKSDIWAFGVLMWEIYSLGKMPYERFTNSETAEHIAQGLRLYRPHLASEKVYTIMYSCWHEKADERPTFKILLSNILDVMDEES

IC50 [2] | EC50 (CD86 surface expression) | SMILES | IC50 [1]
101 nM | 211 nM | Cc1c(-c2cc(Nc3cc4n(n3)CCN(C)C4)c(=O)[nH]n2)cc(F)cc1N1Cc2cc(C(C)(C)C)sc2C1=O [Compound 122, 6-(3-{2-tert-butyl-6-oxo-4H,5H,6H-thieno[2,3-c]pyrrol-5-yl}-5-fluoro-2-methylphenyl)-4-({5-methyl-4H,5H,6H,7H-pyrazolo[1,5-a]pyrazin-2-yl}amino)-2,3-dihydropyridazin-3-one] | –
147 nM | – | Cn1nc(-c2cccc(N3Cc4cc(C(C)(C)C)sc4C3=O)c2CO)cc(Nc2cc3n(n2)CCN(C2CC2)C3)c1=O [Compound 133, 6-(3-{2-tert-butyl-6-oxo-4H,5H,6H-thieno[2,3-c]pyrrol-5-yl}-2-(hydroxymethyl)phenyl)-4-({5-cyclopropyl4H,5H,6H,7H-pyrazolo[1,5-a]pyrazin-2-yl}amino)-2-methyl-2,3-dihydropyridazin-3-one] | –
410 nM | 1200 nM | Cn1nc(-c2ccc(F)c(N3Cc4cc(C(C)(C)C)sc4C3=O)c2CO)cc(Nc2cc(C3CC3)[nH]n2)c1=O [Compound 142, 6-(3-{2-tert-butyl-6-oxo-4H,5H,6H-thieno[2,3-c]pyrrol-5-yl} -4-fluoro-2-(hydroxymethyl)phenyl)-4-[(5-cyclopropyl-1H-pyrazol-3-yl)amino]-2-methyl-2,3-dihydropyridazin-3-one] | –

SMILES | IC50 [2] | EC50 (CD86 surface expression) | IC50 [1]
Cc1c(-c2cc(Nc3cc(C4CC4)[nH]n3)c(=O)[nH]n2)cccc1N1Cc2cc(C(C)(C)C)sc2C1=O [Compound 113, 6-(3-{2-tert-butyl-6-oxo-4H,5H,6H-thieno[2,3-c]pyrrol-5-yl}-2-methylphenyl)-4-[(5-cyclopropyl-1H-pyrazol-3-yl)amino]-2,3-dihydropyridazin-3-one] | 213 nM | – | 4 nM
CC(C)(C)c1cc2c(s1)C(=O)N(c1nc(-c3cc(Nc4cc(C5CC5)[nH]n4)c(=O)[nH]n3)ccc1F)C2 [Compound 116, 6-(6-{2-tert-butyl-6-oxo-4H,5H,6H-thieno[2,3-c]pyrrol-5-yl}-5-fluoropyridin-2-yl)-4-[(5-cyclopropyl-1H-pyrazol-3-yl)amino]-2,3-dihydropyridazin-3-one] | 2500 nM | – | 35 nM
